According to article PMC6112376, “Comprehensive Analyses and Prioritization of Tox21 10K Chemicals Affecting Mitochondrial Function by in-Depth Mechanistic Studies” (Environmental Health Perspectives, 2018):
Read-outs that look alike come from different tables or passages of the source.

Experiments:
HepG2 cells [1] = assay: cells; details: Homo sapiens; for IC50: HepG2, read-out: MMP assays IC50 (µM) HepG2; for Emax: HepG2, read-out: MMP assays efficacy (%) HepG2
rat primary hepatocytes [2] = tested on: rat primary hepatocytes
HepG2 cells [3] = details: cited from earlier work
rat primary hepatocytes [4] = assay: MMP assay in rat primary hepatocytes; details: for IC50: Rattus norvegicus, Hepatocyte, read-out: MMP assays IC50 (µM) Rat Hepatocytes
[5] = read-out: MMP assays IC50 (µM) qHTS-HepG2
[6] = read-out: MMP assays IC50 (µM), qHTS-HepG2

Row | Structure (SMILES) | IC50 (HepG2 cells [1]) | Emax (HepG2 cells [1]) | MMP assays efficacy (%) Rat Hepatocytes (rat primary hepatocytes [2]) | MMP assays efficacy (%) qHTS-HepG2 (HepG2 cells [3]) | IC50 (HepG2 cells [3]; [5]) | IC50 (rat primary hepatocytes [4]) | IC50 (HepG2 cells [3]; [6]) | MMP assays IC50 (µM) Rat Hepatocytes (rat primary hepatocytes [4])
1 | O=[N+]([O-])c1c2ccccc2cc2ccccc12 [Compound 9-Nitroanthracene] | 35.5 µM | 88% | -74±29% | -87±19% | 21.4 ± 12.8 µM | 33 ± 4.21 µM |  | 
2 | NC(=O)Oc1ccc(Cc2ccccc2)cc1 [Diphenan] | 19.9 µM | 112% | -51±6% | -115±14% | 22.3 ± 4.67 µM | 84.2 ± 39.6 µM |  | 
3 | Cc1c(N)cccc1N [2,6-Toluenediamine] | 28.2 µM | 85% | -44±11% | -72±11% | 15.7 ± 10 µM | 32.2 ± 7.36 µM |  | 
4 | CCc1oc2ccccc2c1C(=O)c1cc(Br)c(O)c(Br)c1 [Benzbromarone] | 13.8 µM | 107% | -82±50% | -138±3% | 7.22 ± 1.24 µM | 4.91 ± 1.79 µM |  | 
5 | C=C1/C(=C\C=C2/CCC[C@]3(C)[C@@H]([C@H](C)CCCC(C)(C)O)CC[C@@H]23)C[C@@H](O)C[C@@H]1O [Calcitriol] | 15.5 µM | 75% | -37±8% | -94±17% | 14.1 ± 4.15 µM | 22.4 ± 7.17 µM |  | 
6 | O=C(CCc1ccc(O)cc1)c1c(O)cc(O)cc1O [Phloretin] | 11.2 µM | 100% | -74±26% | -107±12% |  | 10.6 ± 4.98 µM | 4.26 ± 1.22 µM | 
7 | C=CC[C@]1(O)CC[C@H]2[C@@H]3CCC4=CCCC[C@@H]4[C@H]3CC[C@@]21C [Allylestrenol] | 31.6 µM | 97% | inactive | -52±13% | 12.8 ± 3.68 µM |  |  | inactive
8 | CCCCCCCCSC(=O)Oc1cc(Cl)nnc1-c1ccccc1 [Pyridate] | 35.5 µM | 44% | -59±19% | -97±17% |  | 50.5 ± 8.18 µM | 33.1 ± 4.58 µM | 
9 | C[C@@H]1O[C@@H](O[C@@H]2C=C3CC[C@@H]4[C@H](CC[C@]5(C)[C@@H](c6ccc(=O)oc6)CC[C@]45O)[C@@]3(C)CC2)[C@H](O)[C@H](O)[C@H]1O [Proscillaridin] | 0.066 µM | 86% | inactive | -72±4% |  |  | 0.09 ± 0.02 µM | inactive
10 | CN(C)C(=S)SSC(=S)N(C)C [THIRAM] | 24.5 µM | 66% | -96±85% | -57±29% |  | 16.5 ± 20.3 µM |  | 
11 | OC(c1ccc(Cl)cc1)(c1ccc(Cl)cc1)C(Cl)(Cl)Cl [Dicofol] | 8.91 µM | 101% | -122±51% | -98±4% | 9.69 ± 3.51 µM | 24.6 ± 9.27 µM |  | 
12 | Brc1ccc(Oc2cc(Br)c(Br)cc2Br)c(Br)c1 [2,2',4,4',5-Pentabromodiphenyl ether] | 4.47 µM | 88% | -43±30% | -109±22% | 8 ± 3.19 µM | 9.11 ± 4.93 µM |  | 
13 | CN(C)S(=O)(=O)N(SC(F)(Cl)Cl)c1ccccc1 [Dichlofluanid] | 25.1 µM | 99% | -59±33% | -105±5% | 5.24 ± 1.99 µM | 23 ± 29.5 µM |  | 
14 | NC(=O)N1C(=O)/C(=C(\O)c2cccs2)c2cc(Cl)ccc21 [Tenidap] | 15.8 µM | 102% | -96±13% | -111±5% |  | 21.1 ± 7.88 µM | 12.5 ± 1.19 µM | 
15 | CC(C)[C@H](C(=O)OC(C#N)c1cccc(Oc2ccccc2)c1)c1ccc(OC(F)F)cc1 (some centres unmarked) [Flucythrinate] | 31.6 µM | 80% | -57±39% | -84±23% |  | 43.9 ± 17.4 µM | 35.7 ± 20 µM | 
16 | O=C(Nc1ccccc1)Nc1ccnc(Cl)c1 [Forchlorfenuron] | 1 µM | 104% | -108±37% | -112±3% |  | 2.19 ± 1.97 µM | 0.45 ± 0.13 µM | 
17 | Oc1c(Cl)cc(Cl)cc1Sc1cc(Cl)cc(Cl)c1O [Bithionol] | 0.97 µM | 92% | -109±25% | -97±9% | 0.66 ± 0.52 µM | 2.47 ± 1.39 µM |  | 

Row | Structure (SMILES) | IC50 (HepG2 cells [1]) | Emax (HepG2 cells [1]) | MMP assays efficacy (%) Rat Hepatocytes (rat primary hepatocytes [2]) | MMP assays efficacy (%) qHTS-HepG2 (HepG2 cells [3]) | IC50 (HepG2 cells [3]; [5]) | IC50 (rat primary hepatocytes [4]) | IC50 (HepG2 cells [3]; [6]) | MMP assays IC50 (µM) Rat Hepatocytes (rat primary hepatocytes [4])
18 | O=C1c2ccccc2C(=O)c2cc(O)ccc21 [Compound 2-Hydroxyanthraquinone] | 7.08 µM | 120% | -68±21% | -124±4% | 3.31 ± 1.38 µM | 17.3 ± 6.83 µM |  | 
19 | Oc1ccc(Cc2ccccc2)cc1 [Compound 4-Benzylphenol] | 31.6 µM | 118% | inactive | -124±22% | 15.9 ± 3.38 µM |  |  | inactive
20 | Cl[Si](Cl)(c1ccccc1)c1ccccc1 [Dichlorodiphenylsilane] | 22.4 µM | 109% | inactive | -106±4% | 13 ± 9.66 µM |  |  | inactive
21 | Cc1cc(C)c(/C=C2\C(=O)Nc3ccccc32)[nH]1 [SU-5416] | 13.8 µM | 115% | -83±12% | -116±2% |  | 11 ± 1.78 µM | 12.5 ± 1.78 µM | 
22 | Clc1ccccc1-c1ccccc1Cl [2,2'-Dichlorobiphenyl] | 63.1 µM | 76% | inactive | -71±13% | 31.1 ± 12.3 µM |  |  | inactive
23 | COc1cccc2c1C(=O)c1c(O)c3c(c(O)c1C2=O)C[C@@](O)(C(=O)CO)C[C@@H]3O[C@H]1C[C@H](N)[C@H](O[C@@H]2CCCCO2)[C@H](C)O1 [Pirarubicin] | 0.69 µM | 53% | -39±8% | -68±19% |  | 0.03 µM | 0.6 ± 0.46 µM | 
24 | CCCCCCc1ccc(-c2ccc(C#N)cc2)cc1 [4-Hexyl-4'-cyanobiphenyl] | 31.6 µM | 59% | -56±24% | -109±6% | 42.5 ± 15.4 µM | 17.5 ± 15.6 µM |  | 
25 | COC(=O)N(OC)c1ccccc1COc1ccn(-c2ccc(Cl)cc2)n1 [Pyraclostrobin] | 1.26 µM | 118% | -121±32% | -116±2% |  | 9.04 ± 1.89 µM | 6.35 ± 1.92 µM | 
26 | CCC(C)(c1ccc(O)cc1)c1ccc(O)cc1 [Bisphenol B] | 10 µM | 122% | -79±17% | -117±22% | 10.7 ± 2.48 µM | 21.8 ± 8.6 µM |  | 
27 | C[C@@]12C(=O)OC(=O)[C@]1(C)[C@H]1CC[C@@H]2O1 [Cantharidin] | 0.12 µM | 98% | -91±63% | -67±9% | 0.15 ± 0.08 µM | 0.45 ± 0.3 µM |  | 
28 | CCC(C)(C)c1ccc(O)cc1 [4-(2-Methylbutan-2-yl)phenol] | 35.5 µM | 96% | inactive | -95±13% | 22.7 ± 3.07 µM |  |  | inactive
29 | CN(C)c1ccc2nc3ccc(=[N+](C)C)cc-3sc2c1 [Methylene blue] | 2.75 µM | 89% | inactive | -78±9% |  |  | 2.88 ± 1.33 µM | inactive
30 | CC(C)(C)c1cc(O)c(C(C)(C)C)cc1O [2,5-Di-tert-butylbenzene-1,4-diol] | 7.94 µM | 98% | -73±5% | -107±12% | 7.41 ± 1.27 µM | 39.1 ± 15.5 µM |  | 
31 | CCCCOC(=O)c1ccc(O)cc1 [Butylparaben] | 35.5 µM | 124% | inactive | -109±15% | 19 µM |  |  | inactive
32 | COC1C(O)CC(OC2CC(Oc3cc4cc5c(c(O)c4c(O)c3C)C(=O)[C@@H](OC3CC(OC4CC(OC6CC(C)(O)C(OC(C)=O)C(C)O6)C(O)C(C)O4)C(O)C(C)O3)[C@H]([C@H](OC)C(=O)[C@@H](O)[C@@H](C)O)C5)OC(C)C2OC(C)=O)OC1C (some centres unmarked) [chromomycin] | 35.5 µM | 44% | inactive | -84±13% | 12.3 ± 0.84 µM |  |  | inactive
33 | Oc1ccc(Cl)c(Cl)c1 [3,4-Dichlorophenol] | 15.8 µM | 114% | -45±32% | -104±7% | 9.18 ± 2.63 µM | 53.9 ± 13 µM |  | 
34 | O=c1c(-c2ccc(O)cc2)coc2cc(O)cc(O)c12 [Genistein] | 10 µM | 96% | -70±41% | -101±1% |  | 33.7 ± 19.5 µM | 6.34 ± 0.77 µM | 
